In patent publication US11299462B2, “Crystal form of oxopicolinamide derivative and preparation method therefor” (JIANGSU HENGRUI MEDICINE CO., LTD., priority 2018, dated 2022):

Assays:
[1] = Study of the stability of the crystal forms (HPLC purity and XRPD crystal form, Day 7); type: physicochemical; conditions: for XRPD peaks / crystallinity / HPLC purity change / crystal form stability: 25° C.-60% RH and 40° C.-75% RH; for Purity %: HPLC purity, Day 7, spread flat in the air; for Crystal form: XRPD, Day 7; for chemical stability: conclusion from Table 7
Method: Example 13. Study of the Stability of the Crystal Forms
The samples of crystal forms A, B, C, D and F were spread flat in the air to test sample stability under conditions of 4° C., 25° C.-60% relative humidity (RH) and 40° C.-75% relative humidity (RH). The sampling was carried out on Day 7. The HPLC purity and crystal form stability of the samples were studied.
The XRPD spectrums of the samples of crystal forms A, B, C, D and F under conditions of 25° C.-60% RH and 40° C.-75% RH are shown in FIGS. 7 to 16.
It can be seen that the stability of crystal forms B and F is better than that of crystal forms A, C and D.

human blood = assay: In vitro anticoagulant effect on human blood (APTT detection in plasma); type: biochemical
Method: Test Example 2: Determination of In Vitro Anticoagulant Effect of the Compound of the Present Invention on Human Blood
1. Experimental Materials
Plasma: human blood was collected in blood collection tubes free of anticoagulant, and then 3.8% sodium citrate (volume ratio 1:9) was added. The tubes were centrifuged at 2500 rpm for 10 minutes at room temperature, and then the plasma was collected and stored at −80° C.;
Reagents: APTT reagent (Activated partial thromboplastin time assay kit, SIEMENS, No. B4218-1), calcium chloride solution;
Instrument: coagulation instrument (SYSMEX, CA-500).
The separated plasma was melted at room temperature and mixed well. 10000 μM of test compound dissolved in 100% DMSO was diluted to 3000, 300, 200, 150, 75, 30, 10, 3, 0.3 μM with 100% DMSO, and the blank was 100% DMSO. The reagent, plasma, and compounds were placed in corresponding positions in the coagulation instrument, and APTT detection of the compound was carried out.
Curve fitting was carried out by Prism, and CT2 (i.e., the concentration of the compound corresponding to 2 times the APTT of the blank control) was calculated. CT2=2.0.

Row | SMILES | crystallinity [1] | Purity % ([1]; 4° C.) [%] | Purity % ([1]; 25° C. 60% RH) [%] | Purity % ([1]; 40° C. 75% RH) [%] | Crystal form ([1]; 4° C.) | Crystal form ([1]; 25° C. 60% RH) | Crystal form ([1]; 40° C. 75% RH) | chemical stability [1] | HPLC purity change ([1]; 4° C.) | XRPD peaks ([1]; 4° C.) | crystal form stability ([1]; 4° C.) | XRPD ([1]; 40° C.-75% RH) | XRPD peaks [1] | CT2 (concentration of the compound corresponding to 2 times the APTT of the blank control) (human blood)
1 | COc1cn([C@@H](Cc2ccccc2)C(=O)Nc2ccc(C(=O)O)cc2)c(=O)cc1-c1cc(Cl)ccc1C(C)=O [Crystal form A, (S)-4-(2-(4-(2-Acetyl-5-chlorophenyl)-5-methoxy-2-oxopyridin-1(2H)-yl)-3-phenylpropanamido)benzoic acid] | has decreased | 98.94 | 98.99 | 99.01 | Same | Different | Different | good | – | – | – | – | have changed with the loss of some peak characters | –
2 | COc1cn([C@@H](Cc2ccccc2)C(=O)Nc2ccc(C(=O)O)cc2)c(=O)cc1-c1cc(Cl)ccc1C(C)=O [Crystal form B, (S)-4-(2-(4-(2-Acetyl-5-chlorophenyl)-5-methoxy-2-oxopyridin-1(2H)-yl)-3-phenylpropanamido)benzoic acid] | – | 99.13 | 99.14 | 99.13 | Same | Same | Same | good | changed slightly | have not changed | stable | – | – | –
3 | COc1cn([C@@H](Cc2ccccc2)C(=O)Nc2ccc(C(=O)O)cc2)c(=O)cc1-c1cc(Cl)ccc1C(C)=O [Crystal form C, (S)-4-(2-(4-(2-Acetyl-5-chlorophenyl)-5-methoxy-2-oxopyridin-1(2H)-yl)-3-phenylpropanamido)benzoic acid] | – | 99.28 | 99.29 | 99.31 | Same | Same | Different | good | – | – | – | has also changed | – | –
4 | COc1cn([C@@H](Cc2ccccc2)C(=O)Nc2ccc(C(=O)O)cc2)c(=O)cc1-c1cc(Cl)ccc1C(C)=O [compound of formula (I), (S)-4-(2-(4-(2-acetyl-5-chlorophenyl)-5-methoxy-2-oxopyridin-1(2H)-yl)-3-phenylpropanamido) benzoic acid] | – | – | – | – | – | – | – | – | – | – | – | – | – | 2.0

Further lines, with some results ahead:

Row | crystallinity [1] | Purity % ([1]; 4° C.) [%] | Purity % ([1]; 25° C. 60% RH) [%] | Purity % ([1]; 40° C. 75% RH) [%] | Crystal form ([1]; 4° C.) | Crystal form ([1]; 25° C. 60% RH) | Crystal form ([1]; 40° C. 75% RH) | chemical stability [1] | HPLC purity change ([1]; 4° C.) | XRPD peaks ([1]; 4° C.) | crystal form stability ([1]; 4° C.) | XRPD ([1]; 40° C.-75% RH) | SMILES | XRPD peaks [1] | CT2 (concentration of the compound corresponding to 2 times the APTT of the blank control) (human blood)
5 | has decreased | 98.4 | 98.15 | 98.33 | Same | Different | Different | good | – | – | – | – | COc1cn([C@@H](Cc2ccccc2)C(=O)Nc2ccc(C(=O)O)cc2)c(=O)cc1-c1cc(Cl)ccc1C(C)=O [Crystal form D, (S)-4-(2-(4-(2-acetyl-5-chlorophenyl)-5-methoxy-2-oxopyridin-1(2H)-yl)-3-phenylpropanamido)benzoic acid] | have changed with the loss of some peak characters | –
6 | – | 99.17 | 99.33 | 99.21 | Same | Same | Same | good | changed slightly | have not changed | stable | – | COc1cn([C@@H](Cc2ccccc2)C(=O)Nc2ccc(C(=O)O)cc2)c(=O)cc1-c1cc(Cl)ccc1C(C)=O [Crystal form F, (S)-4-(2-(4-(2-Acetyl-5-chlorophenyl)-5-methoxy-2-oxopyridin-1(2H)-yl)-3-phenylpropanamido)benzoic acid] | – | –
